According to PubChem BioAssay AID248 (DTP/NCI, 2004):
Toxic doses and inconclusive results are not listed. Cut-off read from the data, not from the text of the source: active = T/C of 150% or more; inactive = T/C below 125%.

System: L1210 leukemia ip in BDF1 mice, survival T/C
Assay: NCI In Vivo Anticancer Drug Screen. Data for tumor model L1210 Leukemia (intraperitoneal) in B6D2F1 (BDF1) mice
Settings: endpoint: mean survival time, higher = longer survival
Summary of the method: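 Survival endpoint. Drug-treated group vs vehicle group, expressed as T divided by C. Tumor passaged by transplantation.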

[1] = dose: 100.0 mg/kg/injection, schedule: Q04DX003 (ip), vehicle: saline
[2] = dose: 200.0 mg/kg/injection, schedule: Q04DX003 (ip), vehicle: saline
[3] = dose: 400.0 mg/kg/injection, schedule: Q04DX003 (ip), vehicle: saline
[4] = dose: 50.0 mg/kg/injection, schedule: Q01DX009 (ip), vehicle: Klucel (hydroxypropylcellulose) (HPC)
[5] = dose: 50.0 mg/kg/injection, schedule: Q01DX009 (ip), vehicle: saline with Tween-80
[6] = dose: 100.0 mg/kg/injection, schedule: Q01DX009 (ip), vehicle: saline with Tween-80
[7] = dose: 200.0 mg/kg/injection, schedule: Q01DX009 (ip), vehicle: saline with Tween-80
[8] = dose: 100.0 mg/kg/injection, schedule: Q01DX001 (ip), vehicle: saline
[9] = dose: 200.0 mg/kg/injection, schedule: Q01DX001 (ip), vehicle: saline
[10] = dose: 400.0 mg/kg/injection, schedule: Q01DX001 (ip), vehicle: saline
[11] = dose: 100.0 mg/kg/injection, schedule: Q01DX009 (ip), vehicle: Klucel (hydroxypropylcellulose) (HPC)
[12] = dose: 200.0 mg/kg/injection, schedule: Q01DX009 (ip), vehicle: Klucel (hydroxypropylcellulose) (HPC)
[13] = dose: 100.0 mg/kg/injection, schedule: Q04DX003 (ip), vehicle: saline with Tween-80
[14] = dose: 200.0 mg/kg/injection, schedule: Q04DX003 (ip), vehicle: saline with Tween-80
[15] = dose: 400.0 mg/kg/injection, schedule: Q04DX003 (ip), vehicle: saline with Tween-80
[16] = dose: 100.0 mg/kg/injection, schedule: Q01DX001 (ip), vehicle: saline with Tween-80

Measured: T/C

CCCCCCCC(=O)N1CCCCC1C (stereo not given)
inactive: dose: 100.0 mg/kg/injection, schedule: Q04DX002 (ip), vehicle: Klucel (hydroxypropylcellulose) (HPC) 103 % of control | dose: 200.0 mg/kg/injection, schedule: Q04DX002 (ip), vehicle: Klucel (hydroxypropylcellulose) (HPC) 103 % of control | dose: 400.0 mg/kg/injection, schedule: Q04DX002 (ip), vehicle: Klucel (hydroxypropylcellulose) (HPC) 98 % of control

N#CC1OB(O)c2ccccc21 (stereo not given)
inactive: [1] 93 % of control | [2] 100 % of control | [3] 93 % of control

CCN(CC)C(=S)[S][Pb]([S]C(=S)N(CC)CC)([c]1ccccc1)[c]1ccccc1
inactive: dose: 100.0 mg/kg/injection, schedule: Q01DX001 (ip), vehicle: steriod suspending solution 97 % of control | dose: 200.0 mg/kg/injection, schedule: Q01DX001 (ip), vehicle: steriod suspending solution 98 % of control | dose: 400.0 mg/kg/injection, schedule: Q01DX001 (ip), vehicle: steriod suspending solution 100 % of control

O=C(CCl)Nc1ccc(N=Nc2ccccc2)cc1
inactive: dose: 25.0 mg/kg/injection, schedule: Q01DX009 (ip), vehicle: Klucel (hydroxypropylcellulose) (HPC) 90 % of control | [4] 90 % of control

CCCCCCC(O)C(=O)O (stereo not given)
inactive: dose: 100.0 mg/kg/injection, schedule: Q04DX002 (ip), vehicle: saline with Tween-80 102 % of control | dose: 200.0 mg/kg/injection, schedule: Q04DX002 (ip), vehicle: saline with Tween-80 102 % of control

O=[N+]([O-])c1ccc(NC(=S)Nc2cc([N+](=O)[O-])ccc2Cl)cc1
inactive: [5] 98 % of control | [6] 91 % of control | [7] 91 % of control

CCCCC(=O)N/N=C\c1ccc2c(c1)OCO2
inactive: [8] 94 % of control | [9] 105 % of control | [10] 91 % of control

C=CCN(CC=C)c1ccc(N(CC)CC)cc1
inactive: [11] 86 % of control | [1] 97 % of control | [12] 86 % of control | [2] 105 % of control | [3] 105 % of control

C=CCOc1cc(C)cc(C)c1C
inactive: [4] 95 % of control | dose: 85.0 mg/kg/injection, schedule: Q04DX003 (ip), vehicle: Klucel (hydroxypropylcellulose) (HPC) 90 % of control | [11] 94 % of control | dose: 100.0 mg/kg/injection, schedule: Q04DX003 (ip), vehicle: Klucel (hydroxypropylcellulose) (HPC) 112 % of control | dose: 135.0 mg/kg/injection, schedule: Q04DX003 (ip), vehicle: Klucel (hydroxypropylcellulose) (HPC) 90 % of control | [12] 89 % of control | dose: 200.0 mg/kg/injection, schedule: Q04DX003 (ip), vehicle: Klucel (hydroxypropylcellulose) (HPC) 88 % of control | dose: 300.0 mg/kg/injection, schedule: Q04DX003 (ip), vehicle: Klucel (hydroxypropylcellulose) (HPC) 90 % of control | dose: 400.0 mg/kg/injection, schedule: Q04DX003 (ip), vehicle: Klucel (hydroxypropylcellulose) (HPC) 120 % of control

ClP1(N2CCCCC2)=NP(Cl)(N2CCCCC2)=NP(Cl)(N2CCCCC2)=NP(Cl)(N2CCCCC2)=N1 (stereo not given)
inactive: [1] 105 % of control | [2] 94 % of control | [3] 94 % of control

CCCCCCCCCCCCCC(=O)OCC(OC(=O)CCCCCCCCCCCCC)C(OC(=O)CCCCCCCCCCCCC)C(OC(=O)CCCCCCCCCCCCC)C(C=O)OC(=O)CCCCCCCCCCCCC (stereo not given)
inactive: dose: 100.0 mg/kg/injection, schedule: Q01DX001 (ip), vehicle: other 90 % of control | dose: 200.0 mg/kg/injection, schedule: Q01DX001 (ip), vehicle: other 97 % of control | dose: 400.0 mg/kg/injection, schedule: Q01DX001 (ip), vehicle: other 92 % of control

CCCCCCCCCCCCCCCCNS(=O)(=O)c1ccc(S(=O)(=O)F)cc1
inactive: [13] 94 % of control | [14] 94 % of control | [15] 89 % of control

Cc1cc(N)no1
inactive: dose: 100.0 mg/kg/injection, schedule: Q01DX009 (ip), vehicle: saline 100 % of control | [1] 108 % of control | dose: 200.0 mg/kg/injection, schedule: Q01DX009 (ip), vehicle: saline 104 % of control | [2] 106 % of control | dose: 400.0 mg/kg/injection, schedule: Q01DX009 (ip), vehicle: saline 104 % of control | [3] 108 % of control

O=S1(=O)c2ccccc2-c2ncccc21
inactive: dose: 25.0 mg/kg/injection, schedule: Q01DX001 (ip), vehicle: saline with Tween-80 105 % of control | dose: 50.0 mg/kg/injection, schedule: Q01DX001 (ip), vehicle: saline with Tween-80 109 % of control | [16] 109 % of control

C=NN1CCOC1=O
inactive: dose: 100.0 mg/kg/injection, schedule: Q04DX002 (ip), vehicle: saline 106 % of control | dose: 200.0 mg/kg/injection, schedule: Q04DX002 (ip), vehicle: saline 91 % of control | dose: 400.0 mg/kg/injection, schedule: Q04DX002 (ip), vehicle: saline 111 % of control

CCCN1C(=O)C=CC1=O
inactive: dose: 25.0 mg/kg/injection, schedule: Q01DX009 (ip), vehicle: saline with Tween-80 96 % of control | dose: 25.0 mg/kg/injection, schedule: Q04DX003 (ip), vehicle: saline with Tween-80 91 % of control | [5] 96 % of control | dose: 50.0 mg/kg/injection, schedule: Q04DX003 (ip), vehicle: saline with Tween-80 92 % of control | [6] 95 % of control | [13] 97 % of control

COc1cccc(Nc2ccc(C(=O)O)cc2[N+](=O)[O-])c1
inactive: dose: 100.0 mg/kg/injection, schedule: Q04DX003 (ip), vehicle: water 98 % of control | dose: 200.0 mg/kg/injection, schedule: Q04DX003 (ip), vehicle: water 103 % of control | dose: 400.0 mg/kg/injection, schedule: Q04DX003 (ip), vehicle: water 98 % of control

COc1ccc(CCN(C)C2c3ccccc3C=Cc3ccccc32)cc1OC
inactive: [16] 103 % of control | dose: 200.0 mg/kg/injection, schedule: Q01DX001 (ip), vehicle: saline with Tween-80 107 % of control | dose: 400.0 mg/kg/injection, schedule: Q01DX001 (ip), vehicle: saline with Tween-80 98 % of control

CCCCOC(=O)CCC(C)=O
inactive: [6] 92 % of control | [13] 109 % of control | [7] 100 % of control | [14] 113 % of control | dose: 400.0 mg/kg/injection, schedule: Q01DX009 (ip), vehicle: saline with Tween-80 96 % of control | [15] 112 % of control

NC(=O)c1ccncc1
inactive: [8] 105 % of control | [9] 104 % of control | [10] 98 % of control

CC(=O)OCC1(C[N+](C)(C)C)CC1
inactive: [8] 103 % of control | [1] 100 % of control | [9] 97 % of control | [2] 100 % of control | [10] 105 % of control | [3] 100 % of control

CC(C)=C(c1ccc(Cl)cc1)c1c(N)ncnc1N
inactive: [13] 100 % of control | [14] 100 % of control | [15] 100 % of control

CC(C)CCCC(C)C1CCC2C3CC(=O)NC4CC(Br)CCC4(C)C3CCC12C (stereo not given)
inactive: dose: 100.0 mg/kg/injection, schedule: Q04DX003 (ip), vehicle: acetone 93 % of control | dose: 200.0 mg/kg/injection, schedule: Q04DX003 (ip), vehicle: acetone 102 % of control | dose: 400.0 mg/kg/injection, schedule: Q04DX003 (ip), vehicle: acetone 98 % of control

COC(OC)C1OC(C)(C)OC1C(OS(=O)(=O)c1ccc(C)cc1)C1COC(C)(C)O1 (stereo not given)
inactive: [13] 97 % of control | [14] 91 % of control | [15] 89 % of control
